Test results as given in patent publication US4062950A, “Amino sugar derivatives” (priority 1973, dated 1977).

Biological target: T1, saccharase (Sus scrofa, UniProt P56729)
T1 construct: sucrase subunit of the sucrase-isomaltase complex hydrolyses sucrose
Assay: In vitro saccharase test
Assay type: biochemical, pig
Settings: isolated isomer, Example 19
Protocol: One saccharase inhibitor unit (SIU) is defined as the amount of inhibitor which inhibits two saccharase units to the extent of 50%. One saccharase unit (SU) is the amount of enzyme which under the test conditions specified splits 1 μmol of sucrose to glucose and fructose per minute. The μmols of glucose formed are determined quantitatively by means of the glucose oxidase reaction under conditions under which a further splitting of the sucrose by the saccharase no longer takes place. To carry out the test, 0.05 ml of solubilized saccharase [from the mucous membrane of the small intestine of the pig, according to B. Borgastrom, A. Dahlquist, Acta Chem. Scand. 12, (1958), page 1,997], diluted with 0.1 M sodium maleate buffer of pH 6.0 to a SU content adjusted to 0.12 SU is mixed with 0-20 μg of inhibitor or 0-20 μl of the solution to be tested and brought up to 0.1 ml with 0.1 M sodium maleate buffer of pH 6.0. The mixture is equilibrated for 10 minutes at 35° C and 0.1 ml of an 0.05 M sucrose solution in 0.1 M sodium maleate buffer of pH 6.0, pre-warmed to 35° C, is then added. The mixture is incubated for 20 minutes at 35° C, the saccharase reaction is stopped by addition of 1 ml of glucose oxidase reagent, and the incubation is continued for a further 30 minutes at 35° C. (The glucose oxidase reagent is prepared by dissolving 2 mg of glucose oxidase, Boehringer, No. 15,423, in 100 ml of 0.565 M tris-HCl buffer of pH 7.0 and subsequently adding 1 ml of detergent solution (2 g of Triton X 100 + 8 g of 95% strength and analytical grade ethanol), 1 ml of dianisidine solution (260 mg of o-dianisidine. 2HCl in 20 ml of H2 O) and 0.5 ml of 0.1% strength aqueous peroxidase solution, Boehringer, No. 15,302). Thereafter, 1 ml of 50% strength H2 SO4 is added and a measurement carried out at 545 nm against a corresponding blank. To evaluate the results, the percentage inhibition of the saccharase employed is calculated and converted to SIU/g of SIU/liter from the 50% inhibition point, using a glucose calibration curve.

T1 sequence (P56729 with tags, fused parts or gaps): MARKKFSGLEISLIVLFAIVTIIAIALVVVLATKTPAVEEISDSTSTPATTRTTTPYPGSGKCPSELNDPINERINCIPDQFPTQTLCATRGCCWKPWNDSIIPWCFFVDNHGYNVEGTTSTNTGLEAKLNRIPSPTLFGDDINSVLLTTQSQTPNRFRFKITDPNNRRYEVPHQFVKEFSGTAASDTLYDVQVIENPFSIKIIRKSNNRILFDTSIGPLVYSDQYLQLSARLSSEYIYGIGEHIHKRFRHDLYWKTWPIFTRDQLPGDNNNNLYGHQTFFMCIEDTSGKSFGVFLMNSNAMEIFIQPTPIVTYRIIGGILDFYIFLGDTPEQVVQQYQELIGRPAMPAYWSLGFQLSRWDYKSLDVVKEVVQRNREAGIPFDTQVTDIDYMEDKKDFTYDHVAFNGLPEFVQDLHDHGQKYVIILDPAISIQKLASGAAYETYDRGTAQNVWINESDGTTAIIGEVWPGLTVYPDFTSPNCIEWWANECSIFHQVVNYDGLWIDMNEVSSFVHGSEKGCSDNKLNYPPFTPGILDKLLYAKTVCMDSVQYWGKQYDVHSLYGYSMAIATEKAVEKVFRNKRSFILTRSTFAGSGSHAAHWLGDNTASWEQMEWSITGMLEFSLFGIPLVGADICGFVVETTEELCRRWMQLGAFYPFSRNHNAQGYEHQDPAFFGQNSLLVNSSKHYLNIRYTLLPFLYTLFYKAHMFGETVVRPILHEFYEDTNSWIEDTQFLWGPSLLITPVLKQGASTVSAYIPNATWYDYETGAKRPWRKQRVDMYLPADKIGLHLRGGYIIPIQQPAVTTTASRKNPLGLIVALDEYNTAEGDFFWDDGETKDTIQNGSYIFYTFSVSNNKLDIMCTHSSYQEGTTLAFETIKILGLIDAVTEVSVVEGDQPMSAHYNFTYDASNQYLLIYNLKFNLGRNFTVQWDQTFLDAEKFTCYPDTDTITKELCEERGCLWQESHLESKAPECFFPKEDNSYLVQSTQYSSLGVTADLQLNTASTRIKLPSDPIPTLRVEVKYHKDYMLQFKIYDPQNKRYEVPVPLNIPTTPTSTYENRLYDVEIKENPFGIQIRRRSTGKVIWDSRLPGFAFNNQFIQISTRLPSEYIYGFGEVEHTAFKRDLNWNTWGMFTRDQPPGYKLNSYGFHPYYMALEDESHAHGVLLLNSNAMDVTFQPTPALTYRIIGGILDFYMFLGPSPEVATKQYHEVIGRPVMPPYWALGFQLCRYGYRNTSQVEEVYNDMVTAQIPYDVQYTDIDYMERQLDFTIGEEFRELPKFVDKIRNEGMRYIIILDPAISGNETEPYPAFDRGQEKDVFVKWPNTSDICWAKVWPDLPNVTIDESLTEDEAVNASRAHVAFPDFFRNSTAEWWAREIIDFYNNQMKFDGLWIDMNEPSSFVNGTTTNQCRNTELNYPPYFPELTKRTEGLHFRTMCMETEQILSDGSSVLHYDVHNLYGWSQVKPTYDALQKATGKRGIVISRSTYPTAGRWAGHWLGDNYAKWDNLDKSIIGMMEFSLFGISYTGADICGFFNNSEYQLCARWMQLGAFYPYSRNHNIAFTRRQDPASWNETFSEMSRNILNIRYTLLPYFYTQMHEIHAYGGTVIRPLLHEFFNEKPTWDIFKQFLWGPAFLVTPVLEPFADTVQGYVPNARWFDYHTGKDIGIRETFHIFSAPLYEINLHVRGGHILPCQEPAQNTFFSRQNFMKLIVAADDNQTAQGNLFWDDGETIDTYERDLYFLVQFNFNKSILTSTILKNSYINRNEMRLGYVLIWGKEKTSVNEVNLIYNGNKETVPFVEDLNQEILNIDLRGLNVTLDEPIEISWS

Q: `C[C@H]1O[C@H](O[C@H]2[C@H](O)[C@@H](O)[C@@H](O[C@H]3[C@H](O)[C@@H](O)[C@@H](O[C@H]4[C@H](O)[C@@H](O)C(O)O[C@@H]4CO)O[C@@H]3CO)O[C@@H]2CO)[C@H](O)[C@@H](O)[C@@H]1N[C@H]1C=C(CO)[C@@H](O)[C@H](O)[C@H]1O` (stereo partly drawn) [Formula IV, O-{4,6-bisdesoxy-4-[1S-(1,4,6/5)-4,5,6-trihydroxy-3-hydroxymethylcyclohex-2-en-1-ylamino]-α-D-glucopyranosyl}-(1→4)-O-α-D-glucopyranosyl-(1→4)-O-α-D-glucopyranosyl-(1→4)-D-glycopyranose] was tested. Which in vitro saccharase inhibiting activity did it give?
A: 19000 SIU/g
